Laboratory results taken from patent US20060024350A1, “Biodegradable ocular devices, methods and systems” (priority 2004, published 2006).
Entries after “also recorded” stand apart in the source; their conditions may differ.

Columns and labels:
[1] = In vivo elution: HPLC detection of TA in tissues after 4-week subretinal implantation; set-up: species or system rabbit; conditions: four weeks after the implant, PCL/TA 60:40 subretinal
[2] = 72 hours after injection; cited from earlier work
[3] = direct injection, posterior segment; cited from earlier work

SMILES: CC1(C)O[C@@H]2C[C@H]3[C@@H]4CCC5=CC(=O)C=C[C@]5(C)[C@@]4(F)[C@@H](O)C[C@]3(C)[C@]2(C(=O)CO)O1 [TA, Triamcinolone acetonide]
- TA detection in anterior structures or blood (HPLC) [1]: not detected
- TA detection in posterior tissue samples (HPLC) [1]: confirmed the presence; also recorded: localized to the posterior eye segment

SMILES: C[C@]12C=CC(=O)C=C1CC[C@H]1[C@@H]3C[C@@H](O)[C@](O)(C(=O)CO)[C@@]3(C)C[C@H](O)[C@@]12F [triamcinolone]
- triamcinolone present in the vitreous associated with other tissues including retina, pigment epithelium, sclera [2]: less than 1%
- adverse or undesirable side effects observed [3]: elevations in intraocular pressure and the formation of, or acceleration of the development of cataracts
